Test results published in patent publication US10947285B2, “Compounds, compositions and uses thereof for improvement of bone disorders” (Amolyt Pharma, priority 2017, dated 2021).
Non-standard residues stand in square brackets, D forms with d. Residues, ends and D or L forms follow the SMILES beside them. Primed or numbered codes have the meaning given here. No end group written: not given here. *: point of attachment. PEG20′ = PEG20 chain (pegylated), attached via a cysteine; C16 diacid = O=C(O)CCCCCCCCCCCCCCC(=O)*; Arachidoyl = CCCCCCCCCCCCCCCCCCCC(=O)*; Stearoyl = CCCCCCCCCCCCCCCCCC(=O)*; Palmitoyl = CCCCCCCCCCCCCCCC(=O)*; Myristoyl = CCCCCCCCCCCCCC(=O)*

Experiments:
[1] = Pharmacokinetic of acylated HBD-1 fragment analogs in male Sprague Dawley rats after subcutaneous injection; type: in vivo; details: Table 24, sc, 1 μmol net peptide/kg
Procedure: The peptides were reconstituted in saline (0.9% NaCl). Three male Sprague Dawley rats (approximately 6 weeks of age) were used per group. Subcutaneous doses were administered into the right flank of each animal at the target dose level of 1 μmol net peptide/kg. Following dosing, serial whole blood samples (ca. 0.3 mL) were collected from retro-orbital sinus into K2EDTA treated containers. Following each blood sample collection, samples were placed into a cooling block at 4° C. Samples were collected prior to dosing then at 15 and 30 minutes then 1, 2, 4, 6, 8 and 24 hours post dose for subcutaneous injection. Blood samples were centrifuged at 3500×rpm for 10 minutes at 4° C. and resultant plasma aspirated off into clean fully, labelled tubes. Plasma samples were snap frozen following aspiration then stored at −80° C. The peptides were extracted with acetonitrile:water (75:25, v/v) and analyzed using developed LC-MS/MS methods as described in Example 9. The limits of detection of these methods are 0.003 nmol/mL for HBD1 (1-13) with palmitic acid at the N-terminus (C16:0), 0.0008 nmol/mL for HBD1 (3-11) with palmitic acid at the N-terminus (C16:0), 0.0070 nmol/mL for HBD1 (3-11) with stearic acid at the N-terminus (C18:0), and 0.0015 nmol/mL for HBD1 (3-11) with myristic acid at the N-terminus (C14:0), HBD1 (3-11) with arachidic acid at the N-terminus (C20:0), HBD1 (3-11) with palmitic diacid at the N-terminus (C16:0-diacid), HBD1 (3-11) with palmitic acid at the C-terminus (C16:0). All values below these limits of quantification were considered as zero.

[2] = tested on: MC-3T3 E1 clone 4 (CL4) osteoblast cells; assay: in vitro osteoblast differentiation bioassay (stimulation of osteocalcin protein synthesis); type: cell-based
Procedure: Each peptide was tested in a biologic assay measuring its ability to stimulate differentiation of osteoblast cells over a 18-21 day interval (Table 8) or a 14-15 day interval (Table 9) as assessed by the stimulation of osteocalcin protein synthesis. MC-3T3 E1 clone 4 (CL4) osteoblast cells were obtained from ATCC (Manassas, Va., USA). Cells were cultured in α-MEM containing 10% fetal bovine serum (FBS; Thermo Fisher Scientific, Pittsburgh, Pa., USA). After confluency, culture medium was changed to differentiation medium (DM), which contained 10% FBS plus 50 μg/mL ascorbic acid and 4 mM β-glycerol phosphate, with or without a test peptide (1 μg/mL in Table 8 or 1 μmol/L in Table 9). Fresh DM, with or without test peptide, was applied every 72 hours. The cell monolayers were lysed in a modified radioimmunoprecipitation assay (RIPA) buffer. Total cellular protein in the lysates was determined using BCA (Thermo Fisher Scientific, Rockford, Ill., USA). Cell proteins are separated on SDS-PAGE gel and transferred on PVDF membrane for analysis. Osteocalcin detection was performed using anti-osteocalcin antibody at 1:200 dilution (Santa Cruz Biotechnology, Inc, Santa Cruz, Calif., USA) or at 1:3000 dilution (NPT Inc., Chapel Hill, N.C., USA) and visualized using enhanced chemiluminescence (Thermo Fisher Scientific, Rockford, Ill., USA).
The peptide was tested at different concentrations in a biologic assay measuring its ability to stimulate differentiation of osteoblast cells over a 18 day interval as assessed by the stimulation of osteocalcin protein synthesis. MC-3T3 E1 clone 4 (CL4) osteoblast cells were obtained from ATCC (Manassas, Va., USA). Cells were cultured in α-MEM containing 10% fetal bovine serum (FBS; Thermo Fisher Scientific, Pittsburgh, Pa., USA). After confluency, culture medium was changed to differentiation medium (DM), which contained 10% FBS plus 50 μg/mL ascorbic acid and 4 mM β-glycerol phosphate, with or without an ascending dose of the peptide from 0.1 μg/mL to 4 μg/mL. Fresh DM, with or without the peptide, was applied every 72 hours. The cell monolayers were lysed in a modified radioimmunoprecipitation assay (RIPA) buffer. Total cellular protein in the lysates was determined using BCA (Thermo Fisher Scientific, Rockford, Ill., USA). Cell proteins are separated on SDS-PAGE gel and transferred on PVDF membrane for analysis. Osteocalcin detection was performed using anti-osteocalcin antibody at 1:200 dilution (Santa Cruz Biotechnology, Inc, Santa Cruz, Calif., USA) and visualized using enhanced chemiluminescence (Thermo Fisher Scientific, Rockford, Ill., USA).
Each peptide was tested in a biologic assay measuring its ability to stimulate differentiation of osteoblast cells over a 15 day interval as assessed by the stimulation of osteocalcin protein synthesis. MC-3T3 E1 clone 4 (CL4) osteoblast cells were obtained from ATCC (Manassas, Va., USA). Cells were cultured in α-MEM containing 10% fetal bovine serum (FBS; Thermo Fisher Scientific, Pittsburgh, Pa., USA). After confluency, culture medium was changed to differentiation medium (DM), which contained 10% FBS plus 50 μg/mL ascorbic acid and 4 mM β-glycerol phosphate, with or without a test peptide (1 μg/mL). Fresh DM, with or without test peptide, was applied every 72 hours for 15 days. The cell monolayers were lysed in a modified radioimmunoprecipitation assay (RIPA) buffer. Total cellular protein in the lysates was determined using BCA (Thermo Fisher Scientific, Rockford, Ill., USA). Cell proteins are separated on SDS-PAGE gel and transferred on PVDF membrane for analysis. Osteocalcin detection was performed using anti-osteocalcin antibody at 1:200 dilution (Santa Cruz Biotechnology, Inc, Santa Cruz, Calif., USA) and visualized using enhanced chemiluminescence (Thermo Fisher Scientific, Rockford, Ill., USA). […]

[3] = Stability of HBD1 fragments in human plasma; type: in vitro ADME; details: 24 and 48 hours incubation at 37° C.
Procedure: The peptides were spiked at 1 μg/mL (peptide backbone) into pre-warmed human K2EDTA plasma (at 37° C.) and incubated for up to 48 hours. Aliquots of plasma were extracted at specific time points (0, 24 and 48 hours post spike). Extraction was performed with acetonitrile:water (75:25, v/v) for HBD1 (1-13), HBD1 (1-13) with palmitic acid at the N-terminus (C16:0), HBD1 (3-11) with palmitic acid at the N-terminus (C16:0)) and HBD1 (3-11) with stearic acid at the N-terminus (C18:0) or with acetonitrile:water:formic acid (75:25:0.1, v/v/v) for HBD1 (3-11) and cyclic HBD1 (3-11). The peptides were analyzed using developed LC (C18 reverse phase column)—positive ion electrospray MS/MS methods specific to each peptide. The peak area at each time point was expressed as a percentage of the value obtained for the t=0 minutes time point.

[4] = Table 17, PEGylated fragments, 2 μg/mL, 18-21 day interval

Molecule	Tlast (last time point with detectable peptide) [1] [h]	Fold increase vs DM ± SE [2, 4] [fold]	other results
CCCCCCCCCCCCCCCC(=O)N[C@@H](CCCCN)C(=O)N[C@@H](Cc1c[nH]cn1)C(=O)N[C@@H](Cc1c[nH]cn1)C(=O)N[C@@H](CC(C)C)C(=O)NCC(=O)N[C@@H](CC(C)C)C(=O)N[C@@H](CCC(=O)O)C(=O)N[C@@H](CCC(=O)O)C(=O)N1CCC[C@H]1C(=O)N[C@@H](CCCCN)C(=O)N[C@@H](CCCCN)C(=O)N[C@@H](CC(C)C)C(=O)N[C@@H](CCCNC(=N)N)C(=O)O [compound 78] (Palmitoyl-KHHLGLEEPKKLR-OH)	8		
67 ([PEG20′]CHLGLEEPKK; not fully specified (some residues); printed as PEG20-C-HLGLEEPKK) [compound 67]		1.9 ± 0.2	
CCCCCCCCCCCCCCCC(=O)N[C@@H](Cc1c[nH]cn1)C(=O)N[C@@H](CC(C)C)C(=O)NCC(=O)N[C@@H](CC(C)C)C(=O)N[C@@H](CCC(=O)O)C(=O)N[C@@H](CCC(=O)O)C(=O)N1CCC[C@H]1C(=O)N[C@@H](CCCCN)C(=O)N[C@@H](CCCCN)C(=O)O [compound 72] (Palmitoyl-HLGLEEPKK-OH)	8		stability in human plasma (in words) [3]: plasma stability profile similar to that of the corresponding unconjugated linear peptide HBD1 (3-11)
CCCCCCCCCCCCCCCCCC(=O)N[C@@H](Cc1c[nH]cn1)C(=O)N[C@@H](CC(C)C)C(=O)NCC(=O)N[C@@H](CC(C)C)C(=O)N[C@@H](CCC(=O)O)C(=O)N[C@@H](CCC(=O)O)C(=O)N1CCC[C@H]1C(=O)N[C@@H](CCCCN)C(=O)N[C@@H](CCCCN)C(=O)O [compound 73] (Stearoyl-HLGLEEPKK-OH)	8		Fold increase vs DM ± SE ([2]; Table 19, dose 1.0 μM, 18 day interval): 3.46 ± 0.47 fold; Fold increase vs DM ± SE ([2]; Table 19, dose 2.0 μM, 18 day interval): 4.48 ± 0.07 fold; Fold increase vs DM ± SE ([2]; Table 19, dose 3.0 μM, 18 day interval): 5.66 ± 0.45 fold; stability in human plasma (in words) [3]: plasma stability profile similar to that of the corresponding unconjugated linear peptide HBD1 (3-11)
CCCCCCCCCCCCCC(=O)N[C@@H](Cc1c[nH]cn1)C(=O)N[C@@H](CC(C)C)C(=O)NCC(=O)N[C@@H](CC(C)C)C(=O)N[C@@H](CCC(=O)O)C(=O)N[C@@H](CCC(=O)O)C(=O)N1CCC[C@H]1C(=O)N[C@@H](CCCCN)C(=O)N[C@@H](CCCCN)C(=O)O [compound 71] (Myristoyl-HLGLEEPKK-OH; C-terminus assumed)	6		
CCCCCCCCCCCCCCCCCCCC(=O)N[C@@H](Cc1c[nH]cn1)C(=O)N[C@@H](CC(C)C)C(=O)NCC(=O)N[C@@H](CC(C)C)C(=O)N[C@@H](CCC(=O)O)C(=O)N[C@@H](CCC(=O)O)C(=O)N1CCC[C@H]1C(=O)N[C@@H](CCCCN)C(=O)N[C@@H](CCCCN)C(=O)O [compound 74] (Arachidoyl-HLGLEEPKK-OH; C-terminus assumed)	8		
CC(C)C[C@H](NC(=O)CNC(=O)[C@H](CC(C)C)NC(=O)[C@H](Cc1c[nH]cn1)NC(=O)CCCCCCCCCCCCCCC(=O)O)C(=O)N[C@@H](CCC(=O)O)C(=O)N[C@@H](CCC(=O)O)C(=O)N1CCC[C@H]1C(=O)N[C@@H](CCCCN)C(=O)N[C@@H](CCCCN)C(=O)O [compound 75] ({C16 diacid}-HLGLEEPKK-OH; C-terminus assumed)	8		
66 (HHLGLEEPKK; not fully specified; MOD_RES (10)..(10) Pegylated) [compound 66]		2.2 ± 0.2	
63 ([PEG20′]CKHHLGLEEPKKLR; not fully specified (some residues); printed as PEG20-C-KHHLGLEEPKKLR) [compound 63]		1.4 ± 0.3	
CC(C)C[C@@H]1NC(=O)CNC(=O)[C@H](CC(C)C)NC(=O)[C@H](Cc2c[nH]cn2)NC(=O)[C@H](CCCCN)NC(=O)[C@H](CCCCN)NC(=O)[C@@H]2CCCN2C(=O)[C@H](CCC(=O)O)NC(=O)[C@H](CCC(=O)O)NC1=O [compound 77] (cyclo(EEPKKHLGL))			stability in human plasma (in words) [3]: plasma stability profile similar to that of the corresponding unconjugated linear peptide HBD1 (3-11)
65 ([PEG20′]CHHLGLEEPKK; not fully specified (some residues); printed as PEG20-C-HHLGLEEPKK) [compound 65]		1.4 ± 0.1	
64 (KHHLGLEEPKKLR; not fully specified; MOD_RES (13)..(13) Pegylated) [compound 64]		2.2 ± 0.4	
CCCCCCCCCCCCCCCC(=O)NCCCC[C@H](NC(=O)[C@H](CCCCN)NC(=O)[C@@H]1CCCN1C(=O)[C@H](CCC(=O)O)NC(=O)[C@H](CCC(=O)O)NC(=O)[C@H](CC(C)C)NC(=O)CNC(=O)[C@H](CC(C)C)NC(=O)[C@@H](N)Cc1c[nH]cn1)C(=O)O [compound 76] (H-HLGLEEPKK(Palmitoyl)-OH; N-terminus and C-terminus assumed)	8		
